Molecular target: Recombinant human cathepsin S (CatS) (Homo sapiens, UniProt P25774)
Assay: Recombinant human cathepsin S (CatS) inhibition assay, fluorogenic substrate Z-Valine-Valine-Arginine-AMC;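 further: Baculovirus-expressed CatS in pH 5.0 sodium acetate buffer with DTT and NaCl, fluorescence read each minute over 20 min, inhibition derived from rate slope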
Details: not given

Sequence of Recombinant human cathepsin S (CatS) (P25774 115-331): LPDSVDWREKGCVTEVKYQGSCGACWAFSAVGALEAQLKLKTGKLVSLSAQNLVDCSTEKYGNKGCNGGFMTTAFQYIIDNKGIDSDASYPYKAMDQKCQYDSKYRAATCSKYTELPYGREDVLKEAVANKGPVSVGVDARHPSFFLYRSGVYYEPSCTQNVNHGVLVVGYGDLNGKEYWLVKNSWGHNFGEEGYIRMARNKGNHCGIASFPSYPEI

Molecule | IC50 [nM]
CS(=O)(=O)N1CCc2c(c(-c3ccc(Cl)c(C#Cc4cccnc4)c3)nn2CCCN2CCOCC2)C1 [Example 21, 3-(4-Chloro-3-pyridin-3-ylethynyl-phenyl)-5-methanesulfonyl-1-(3-morpholin-4-yl-propyl)-4,5,6,7-tetrahydro-1H-pyrazolo[4,3-c]pyridine] | 1320
CC(C)(C)OC(=O)N1C[C@@H]2C[C@H]1CN2CCCn1nc(-c2ccc(Cl)c(C#Cc3ccc(CNCc4ccc(Cl)cc4)cc3)c2)c2c1CCN(S(C)(=O)=O)C2 [Example 491, 1,1-Dimethylethyl (1S,4S)-5-{3-[3-(4-chloro-3-{[4-({[(4-chlorophenyl)methyl]amino}methyl)phenyl]ethynyl}phenyl)-5-(methylsulfonyl)-4,5,6,7-tetrahydro-1H-pyrazolo[4,3-c]pyridin-1-yl]propyl}-2,5-diazabicyclo[2.2.1]heptane-2-carboxylate] | 120
CC(C)(C)OC(=O)N1CCc2ccc(C#Cc3cc(-c4nn(CC(O)CN5CCC(C(N)=O)CC5)c5c4CN(S(C)(=O)=O)CC5)ccc3Cl)cc2C1 (centres unmarked) [Example 373, 1,1-Dimethylethyl 7-({5-[1-{3-[4-(aminocarbonyl)piperidin-1-yl]-2-hydroxypropyl}-5-(methylsulfonyl)-4,5,6,7-tetrahydro-1H-pyrazolo[4,3-c]pyridin-3-yl]-2-chlorophenyl}ethynyl)-3,4-dihydroisoquinoline-2(1H)-carboxylate] | 170
CS(=O)(=O)N1CCc2c(c(-c3ccc(Cl)c(C#Cc4ccc(CN[C@H](CO)c5ccccc5)cc4)c3)nn2CCCN2CCN(c3ccccn3)CC2)C1 [Example 218, (2S)-2-[({4-[(2-Chloro-5-{5-(methylsulfonyl)-1-[3-(4-pyridin-2-ylpiperazin-1-yl)propyl]-4,5,6,7-tetrahydro-1H-pyrazolo[4,3-c]pyridin-3-yl}phenyl)ethynyl]phenyl}methyl)amino]-2-phenylethanol] | 30
NC(=O)N1CCc2c(c(-c3ccc(Cl)c(CCc4ccc(Cl)cc4)c3)nn2C[C@@H](O)CN2CCC(C3CCNCC3)CC2)C1 [Example 479, 1-[(2S)-3-(4,4′-Bipiperidin-1-yl)-2-hydroxypropyl]-3-{4-chloro-3-[2-(4-chlorophenyl)ethyl]phenyl}-1,4,6,7-tetrahydro-5H-pyrazolo[4,3-c]pyridine-5-carboxamide] | 20
CS(=O)(=O)N1CCc2c(c(-c3ccc(C(F)(F)F)c(C#Cc4ccc(Cl)cc4)c3)nn2CC(O)CN2CCOCC2)C1 (centres unmarked) [Example 122, 1-{3-[3-(4-Chloro-phenylethynyl)-4-trifluoromethyl-phenyl]-5-methanesulfonyl-4,5,6,7-tetrahydro-pyrazolo[4,3-c]pyridin-1-yl}-3-morpholin-4-yl-propan-2-ol] | 260
CS(=O)(=O)N1CCc2c(c(-c3ccc(C(F)(F)F)c(C#Cc4ccc(Cl)cc4)c3)nn2CC(O)CN2CCC(C(N)=O)CC2)C1 (centres unmarked) [Example 119, 1-(3-{3-[3-(4-Chloro-phenylethynyl)-4-trifluoromethyl-phenyl]-5-methanesulfonyl-4,5,6,7-tetrahydro-pyrazolo[4,3-c]pyridin-1-yl}-2-hydroxy-propyl)-piperidine-4-carboxylic acid amide] | 60
CS(=O)(=O)c1cccc(S(=O)(=O)NCCCc2cc(-c3nn(CCCN4CCC(N5CCCC5=O)CC4)c4c3CN(S(C)(=O)=O)CC4)ccc2Cl)c1 [Example 99, N-{3-[2-Chloro-5-(5-methanesulfonyl-1-{3-[4-(2-oxo-pyrrolidin-1-yl)-piperidin-1-yl]-propyl}-4,5,6,7-tetrahydro-1H-pyrazolo[4,3-c]pyridin-3-yl)-phenyl]-propyl}-3-methanesulfonyl-benzenesulfonamide] | 2450
CS(=O)(=O)N1CCc2c(c(-c3ccc(Cl)c(C#Cc4cccc(CNCC5CCCO5)c4)c3)nn2CCCN2CCOCC2)C1 (centres unmarked) [Example 510, 1-[3-({2-Chloro-5-[5-(methylsulfonyl)-1-(3-morpholin-4-ylpropyl)-4,5,6,7-tetrahydro-1H-pyrazolo[4,3-c]pyridin-3-yl]phenyl}ethynyl)phenyl]-N-(tetrahydrofuran-2-ylmethyl)methanamine] | 450
C[C@@H]1COCCN1CCCn1nc(-c2ccc(Cl)c(C#Cc3ccc(CNCc4ccc(Cl)cc4)cc3)c2)c2c1CCN(C(=O)C(N)=O)C2 [Example 620, 2-(3-{4-Chloro-3-[(4-{[(4-chlorobenzyl)amino]methyl}phenyl)ethynyl]phenyl}-1-{3-[(3R)-3-methylmorpholin-4-yl]propyl}-1,4,6,7-tetrahydro-5H-pyrazolo[4,3-c]pyridin-5-yl)-2-oxoacetamide] | 150

Same assay, conditions: CatS IC50

Molecule | IC50 [nM]
COC(=O)CNCc1cccc(C#Cc2cc(-c3nn(CCCN4CCOCC4)c4c3CN(S(C)(=O)=O)CC4)ccc2Cl)c1 [Example 188, Methyl N-{[3-({2-chloro-5-[5-(methylsulfonyl)-1-(3-morpholin-4-ylpropyl)-4,5,6,7-tetrahydro-1H-pyrazolo[4,3-c]pyridin-3-yl]phenyl}ethynyl)phenyl]methyl}glycinate] | 550
CS(=O)(=O)N1CCc2c(c(-c3ccc(Cl)c(C#Cc4ccc5c(c4)CNCCC5)c3)nn2CCCN2CCOCC2)C1 [Example 489, 8-({2-Chloro-5-[5-(methylsulfonyl)-1-(3-morpholin-4-ylpropyl)-4,5,6,7-tetrahydro-1H-pyrazolo[4,3-c]pyridin-3-yl]phenyl}ethynyl)-2,3,4,5-tetrahydro-1H-2-benzazepine] | 480
NC(=O)N1CCc2c(c(-c3ccc(Cl)c(C#Cc4ccc(Cl)c(C(=O)N5CCCNCC5)c4)c3)nn2CCCN2CCSCC2)C1 [Example 572, 3-(4-Chloro-3-{[4-chloro-3-(1,4-diazepan-1-ylcarbonyl)phenyl]ethynyl}phenyl)-1-(3-thiomorpholin-4-ylpropyl)-1,4,6,7-tetrahydro-5H-pyrazolo[4,3-c]pyridine-5-carboxamide] | 170
CNC(=O)[C@@H]1Cc2ccc(C#Cc3cc(-c4nn(CCCN5CCOCC5)c5c4CN(S(C)(=O)=O)CC5)ccc3Cl)cc2CN1 [Example 192, (3S)-7-({2-Chloro-5-[5-(methylsulfonyl)-1-(3-morpholin-4-ylpropyl)-4,5,6,7-tetrahydro-1H-pyrazolo[4,3-c]pyridin-3-yl]phenyl}ethynyl)-N-methyl-1,2,3,4-tetrahydroisoquinoline-3-carboxamide] | 80
C[C@H]1COCCN1CCCn1nc(-c2ccc(Cl)c(C#Cc3ccc(Cl)c(CNC4CCCC4)c3)c2)c2c1CCN(C(=O)C(N)=O)C2 [Example 269, (S)-2-{3-[4-Chloro-3-(4-chloro-3-cyclopentylaminomethyl-phenylethynyl)-phenyl]-1-[3-(3-methyl-morpholin-4-yl)-propyl]-1,4,6,7-tetrahydro-pyrazolo[4,3-c]pyridin-5-yl}-2-oxo-acetamide] | 10
CS(=O)(=O)N1CCc2c(c(-c3ccc(Cl)c(C#Cc4ccccc4CN)c3)nn2CCCN2CCOCC2)C1 [Example 385, 1-[2-({2-Chloro-5-[5-(methylsulfonyl)-1-(3-morpholin-4-ylpropyl)-4,5,6,7-tetrahydro-1H-pyrazolo[4,3-c]pyridin-3-yl]phenyl}ethynyl)phenyl]methanamine] | 2720
C[C@H]1COCCN1CCCn1nc(-c2ccc(Cl)c(C#Cc3ccc4c(c3)CN(C3CC3)CC4)c2)c2c1CCN(C(=O)C(N)=O)C2 [Example 283, 2-(3-{4-Chloro-3-[(2-cyclopropyl-1,2,3,4-tetrahydroisoquinolin-7-yl)ethynyl]phenyl}-1-{3-[(3S)-3-methylmorpholin-4-yl]propyl}-1,4,6,7-tetrahydro-5H-pyrazolo[4,3-c]pyridin-5-yl)-2-oxoacetamide] | 100
NC(=O)N1CCc2c(c(-c3ccc(Cl)c(C#Cc4ccc5c(c4)CN(Cc4ccc(Cl)cc4)CC5)c3)nn2CCCN2CCOCC2)C1 [Example 465, 3-[4-Chloro-3-({2-[(4-chlorophenyl)methyl]-1,2,3,4-tetrahydroisoquinolin-7-yl}ethynyl)phenyl]-1-(3-morpholin-4-ylpropyl)-1,4,6,7-tetrahydro-5H-pyrazolo[4,3-c]pyridine-5-carboxamide] | 150
CS(=O)(=O)N1CCc2c(c(-c3ccc(Cl)c(C#Cc4ccc5c(c4)CNCC5)c3)nn2CCCN2CCCCC2)C1 [Example 381, 7-({2-Chloro-5-[5-(methylsulfonyl)-1-(3-piperidin-1-ylpropyl)-4,5,6,7-tetrahydro-1H-pyrazolo[4,3-c]pyridin-3-yl]phenyl}ethynyl)-1,2,3,4-tetrahydroisoquinoline] | 100
CN1CCc2cc(C#Cc3cc(-c4nn(CCCN5CCOCC5)c5c4CN(S(C)(=O)=O)CC5)ccc3Cl)ccc2C1 [Example 518, 6-({2-Chloro-5-[5-(methylsulfonyl)-1-(3-morpholin-4-ylpropyl)-4,5,6,7-tetrahydro-1H-pyrazolo[4,3-c]pyridin-3-yl]phenyl}ethynyl)-2-methyl-1,2,3,4-tetrahydroisoquinoline] | 390

Same assay, conditions: CatS IC50, Table 2; average of results obtained

Molecule | IC50 [nM]
O=C(N1CCc2c(c(-c3ccc(Cl)c(C#Cc4ccc(Cl)cc4)c3)nn2CCCN2CCOCC2)C1)C(F)(F)F [Example 139, 1-[3-[4-Chloro-3-(4-chloro-phenylethynyl)-phenyl]-1-(3-morpholin-4-yl-propyl)-1,4,6,7-tetrahydro-pyrazolo[4,3-c]pyridin-5-yl]-2,2,2-trifluoro-ethanone] | 230
O=C(c1ccco1)N1CCc2c(c(-c3ccc(Cl)c(C#Cc4ccc(Cl)cc4)c3)nn2CCCN2CCOCC2)C1 [Example 138, [3-[4-Chloro-3-(4-chloro-phenylethynyl)-phenyl]-1-(3-morpholin-4-yl-propyl)-1,4,6,7-tetrahydro-pyrazolo[4,3-c]pyridin-5-yl]-furan-2-yl-methanone] | 350

Same assay, conditions: read-out: CatS IC50; Table 4; average of results obtained

Molecule | IC50 [nM]
(2S)-1-(4,4′-Bipiperidin-1-yl)-3-[3-{4-chloro-3-[3-(diethylamino)prop-1-yn-1-yl]phenyl}-5-(methylsulfonyl)-4,5,6,7-tetrahydro-1H-pyrazolo[4,3-c]pyridin-1-yl]propan-2-ol [Example 471] | 7420

— patent US20080200454A1, “CARBON-LINKED TETRAHYDRO-PYRAZOLO-PYRIDINE MODULATORS OF CATHEPSIN S” (priority 2007, published 2008)
